Read-outs that look alike come from different tables or passages of the source.
Experiments:
[1] = Metal challenge stability in saline with 10 mM Cu^2+ (TLC); assay type: physicochemical; conditions: 0.9 % NaCl with 10 mM Cu^2+, 37 °C, after two half-lives, 80–100 MBq in 800 μL
Method: Aliquots were taken from the prepared solutions at different time points over at least four half-lives, respectively, of ^44Sc and ^68Ga and analyzed by TLC (TLC was used, as the high metal concentrations used in this study may impair the long-term performance of HPLC columns). […] The TLC plates (Silica-gel 60, Merck) were developed using 0.1 M sodium citrate (pH 4.7) as mobile phase. The quantitative distribution of radioactivity was determined with an autoradiography system (Cyclone Plus, Perkin Elmer) and its associated software (Optiquant, version 5.0).
The influence of high metal cation concentration on the stability of ^44Sc and ^68Ga labeled peptides was monitored in solutions containing 0.01 M Fe^3+ or Cu^2+. An aqueous metal cation solution (16 μL of a 0.5 M Fe^3+/Cu^2+ solution) was added to 80–100 MBq of ^44Sc or ^68Ga labeling solution and diluted with 0.9 % NaCl solution to a volume of 800 μL. The incubation conditions, time points of retrieving samples and analysis by TLC were kept the same, as described above.

[2] = Biodistribution in U87MG tumor-bearing mice; assay type: in vivo; conditions: female, CD-1 nude (athymic nude), mouse, U87MG tumor, iv, total radioactivity, i.v. ~5 MBq (~1 nmol), 2 h p.i., mean ± SD, n=3, read-out: Biodistribution, U87MG Tumor
Method: (§1) Female athymic nude mice (CD-1 nude), age 5–6 weeks, were obtained from Charles River Laboratories, Sulzfeld, Germany. U87MG cells and AR42J-cells were suspended in PBS (5 × 10^6 cells in 100 μL) and subcutaneously inoculated on each shoulder. Two to three weeks later, when the tumor reached a size of about 300–500 mm^3, the mice were used for the in vivo studies.
(§2) Biodistribution studies were performed with U87MG tumor and AR42J tumor-bearing mice 2 weeks after tumor cell inoculation. ^44Sc- and ^68Ga-labeled peptides (~5 MBq, ~1 nmol per mouse) were intravenously injected in a volume of 100–200 μL. Mice were sacrificed at 30 min, 2 h and 5 h after injection (p.i.) of the ^44Sc-labeled peptides. Mice which were injected with ^68Ga-labeled peptides were sacrificed at 30 min and 2 h p.i. Selected tissues and organs were collected, weighed, and counted for radioactivity using a γ-counter (Wallac Wizard 1480, Perkin Elmer). The results were listed as a percentage of the injected activity per gram of tissue mass (% IA/g), using counts of a defined volume of the original injection solution counted at the same time. The data were analyzed for significance using a two-way ANOVA test (Graph Pad Prism 6 software, version 6.05). A p-value of < 0.05 was considered statistically significant.

AR42J tumor-bearing mice [3] = conditions: female, CD-1 nude (athymic nude), mouse, in vivo, iv, 5 MBq per mouse
Method: as §1, §2

in vivo = conditions: female, CD-1 nude (athymic nude), mouse, iv, 5 MBq per mouse, total radioactivity, Biodistribution
Method: as §1, §2

AR42J tumor-bearing mice [4] = assay: PET/CT imaging of AR42J tumor-bearing mice; conditions: 3 h after i.v. injection of ~10 MBq (~1 nmol; ^44Sc-NODAGA-NOC ~3 nmol), one or two mice
Method: A bench-top preclinical PET scanner (G8, Sofie Biosciences, California, U.S.A. and Perkin Elmer, Massachusetts, U.S.A.) was employed for the PET scans of the tumor-bearing mice. The energy window was set to 150–650 keV. Mice were injected intravenously with ^44Sc- or ^68Ga-labeled peptides (~10 MBq, ~1 nmol per mouse) in a volume of 100–200 μL. The PET scans were performed 3 h and 5 h after injection of the ^44Sc-labeled peptides and 3 h after injection of the ^68Ga-labeled peptides, using G8 acquisition software (version 2.0.0.10). All static PET scans lasted for 20 min. During the acquisition the mice were anesthetized by inhalation of a mixture of isoflurane and oxygen. The images were reconstructed with maximum-likelihood expectation maximization (MLEM). Gauss post-reconstruction filtering was performed using VivoQuant post-processing software (version 2.10, inviCRO Imaging Services and Software, Boston, U.S.A.).

[5] = Biodistribution in AR42J tumor-bearing mice; conditions: female, CD-1 nude (athymic nude), mouse, AR42J tumor / liver, iv, total radioactivity, Tumor-to-liver ratio, i.v. ~5 MBq (~1 nmol), 2 h p.i., mean ± SD, n=3
Method: as §1, §2

In the case of `N=C(N)NCCC[C@@H]1NC(=O)[C@H](CCCCNC(=O)CN2CCN(CC(=O)O)CCN(CC(=O)O)CCN(CC(=O)O)CC2)NC(=O)[C@@H](Cc2ccccc2)NC(=O)[C@H](CC(=O)O)NC(=O)CNC1=O` [^68Ga-DOTA-RGD, metal not drawn], the “Amount of intact compound in presence of 10 mM Cu^2+” value [1] is reported as 10%.
With `N=C(N)NCCC[C@@H]1NC(=O)[C@H](CCCCNC(=O)CCC(C(=O)O)N2CCN(CC(=O)O)CCN(CC(=O)O)CC2)NC(=O)[C@@H](Cc2ccc(O)cc2)NC(=O)[C@H](CC(=O)O)NC(=O)CNC1=O` (stereo partly shown) [^68Ga-NODAGA-RGD, metal not drawn] the tissue uptake at 2 h [2] was 3.13 ± 0.27 %ID/g.
In the case of `C[C@@H](O)[C@@H]1NC(=O)[C@H](CCCCN)NC(=O)[C@@H](Cc2c[nH]c3ccccc23)NC(=O)[C@H](Cc2cccc3ccccc23)NC(=O)[C@@H](NC(=O)[C@@H](Cc2ccccc2)NC(=O)CN2CCN(CC(=O)O)CCN(CC(=O)O)CCN(CC(=O)O)CC2)CSSC[C@@H](C(=O)N[C@H](CO)[C@@H](C)O)NC1=O` [^44Sc-DOTA-NOC, metal not drawn], the “Biodistribution, Pancreas” value (AR42J tumor-bearing mice [3]; 2 h) is reported as 0.71 ± 0.01 % IA/g, the “Biodistribution, Stomach” value (AR42J tumor-bearing mice [3]; 2 h) is reported as 0.71 ± 0.05 % IA/g and the tissue uptake at 0.5 h (in vivo; Intestines) is reported as 1.02 ± 0.37 %ID/g. For the same compound, the tissue uptake at 0.5 h (in vivo; Pancreas) was 1.29 ± 0.28 %ID/g, the tissue uptake at 5 h (in vivo; Pancreas) was 0.57 ± 0.07 %ID/g and the tissue uptake at 0.5 h (in vivo; Stomach) was 1.38 ± 0.29 %ID/g. It also gave a tissue uptake at 5 h (in vivo; Stomach) of 0.52 ± 0.09 %ID/g.
In the case of `C[C@@H](O)[C@@H]1NC(=O)[C@H](CCCCN)NC(=O)[C@@H](Cc2c[nH]c3ccccc23)NC(=O)[C@H](Cc2cccc3ccccc23)NC(=O)[C@@H](NC(=O)[C@@H](Cc2ccccc2)NC(=O)CN2CCN(CC(=O)O)CCN(CC(=O)O)CCN(CC(=O)O)CC2)CSSC[C@@H](C(=O)N[C@H](CO)[C@@H](C)O)NC1=O` [^68Ga-DOTA-NOC, metal not drawn], the “Biodistribution, Intestines” value (AR42J tumor-bearing mice [3]; 0.5 h) is reported as 0.99 ± 0.13 % IA/g, the “Biodistribution, Pancreas” value (AR42J tumor-bearing mice [3]; 0.5 h) is reported as 2.48 ± 0.11 % IA/g and the “Biodistribution, Stomach” value (AR42J tumor-bearing mice [3]; 0.5 h) is reported as 2.27 ± 0.21 % IA/g. The “Biodistribution, Pancreas” value (AR42J tumor-bearing mice [3]; 2 h) was 1.70 ± 0.22 % IA/g and the “Biodistribution, Stomach” value (AR42J tumor-bearing mice [3]; 2 h) was 1.68 ± 0.27 % IA/g.
In the case of `C[C@@H](O)[C@@H]1NC(=O)[C@H](CCCCN)NC(=O)[C@@H](Cc2c[nH]c3ccccc23)NC(=O)[C@H](Cc2cccc3ccccc23)NC(=O)[C@@H](NC(=O)[C@@H](Cc2ccccc2)NC(=O)CCC(C(=O)O)N2CCN(CC(=O)O)CCN(CC(=O)O)CC2)CSSC[C@@H](C(=O)N[C@H](CO)[C@@H](C)O)NC1=O` (stereo partly shown) [^68Ga-NODAGA-NOC, metal not drawn], the “PET/CT distribution of radioactivity (in words)” value (AR42J tumor-bearing mice [4]) is reported as “accumulated solely in tumors and kidneys” and the tissue to tissue ratio at 2 h [5] is reported as 5.88 ± 0.68.
